# Test results: US20260028365A1 (BIOGEN MA INC., priority 2022, published 2026)
# Assays:
# [1] = target: JH2 domain of human Tyk2 (Homo sapiens (Human), UniProt P29597); experiment: JH2 Biochemical Assay (TR-FRET probe displacement); format: binding; conditions: TR-FRET probe displacement, JH2 domain of human Tyk2
# [2] = target: Tyk2 (Homo sapiens (Human), UniProt P29597); experiment: pSTAT4 Cell Assay (MSD, NK92 cells); format: cell-based; conditions: MSD
# Sequence of Tyk2 (P29597 whole entry): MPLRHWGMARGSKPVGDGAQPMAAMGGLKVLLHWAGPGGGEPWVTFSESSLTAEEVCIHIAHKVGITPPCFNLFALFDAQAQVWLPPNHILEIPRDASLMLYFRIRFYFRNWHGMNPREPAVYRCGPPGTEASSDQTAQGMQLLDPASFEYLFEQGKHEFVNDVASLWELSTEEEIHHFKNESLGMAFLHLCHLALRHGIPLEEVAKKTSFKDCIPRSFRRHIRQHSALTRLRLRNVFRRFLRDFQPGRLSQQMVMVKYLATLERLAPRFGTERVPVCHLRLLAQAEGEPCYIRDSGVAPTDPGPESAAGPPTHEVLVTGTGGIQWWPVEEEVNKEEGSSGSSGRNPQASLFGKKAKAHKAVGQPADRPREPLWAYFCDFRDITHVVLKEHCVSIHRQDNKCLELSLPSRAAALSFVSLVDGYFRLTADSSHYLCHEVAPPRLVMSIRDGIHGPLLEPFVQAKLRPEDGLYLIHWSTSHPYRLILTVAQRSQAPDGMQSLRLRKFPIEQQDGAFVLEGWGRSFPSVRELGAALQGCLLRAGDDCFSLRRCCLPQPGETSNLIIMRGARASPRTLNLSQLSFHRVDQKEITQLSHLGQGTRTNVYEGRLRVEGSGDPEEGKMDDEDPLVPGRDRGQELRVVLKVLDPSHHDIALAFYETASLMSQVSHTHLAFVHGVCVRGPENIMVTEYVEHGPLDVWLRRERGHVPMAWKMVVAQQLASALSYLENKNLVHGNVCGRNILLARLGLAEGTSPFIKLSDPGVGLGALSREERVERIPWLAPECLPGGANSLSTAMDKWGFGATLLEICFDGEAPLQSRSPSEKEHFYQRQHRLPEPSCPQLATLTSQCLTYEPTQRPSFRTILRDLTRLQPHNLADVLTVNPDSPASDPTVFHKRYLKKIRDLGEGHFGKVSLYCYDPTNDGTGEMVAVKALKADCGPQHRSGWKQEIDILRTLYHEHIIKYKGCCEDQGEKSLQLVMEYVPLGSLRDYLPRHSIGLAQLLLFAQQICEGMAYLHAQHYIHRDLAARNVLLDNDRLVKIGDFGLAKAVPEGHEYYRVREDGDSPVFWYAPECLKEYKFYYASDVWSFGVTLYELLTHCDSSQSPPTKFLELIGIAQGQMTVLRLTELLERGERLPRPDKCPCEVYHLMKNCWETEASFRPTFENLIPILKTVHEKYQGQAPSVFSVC
# Sequence of JH2 domain of human Tyk2 (P29597 575-876): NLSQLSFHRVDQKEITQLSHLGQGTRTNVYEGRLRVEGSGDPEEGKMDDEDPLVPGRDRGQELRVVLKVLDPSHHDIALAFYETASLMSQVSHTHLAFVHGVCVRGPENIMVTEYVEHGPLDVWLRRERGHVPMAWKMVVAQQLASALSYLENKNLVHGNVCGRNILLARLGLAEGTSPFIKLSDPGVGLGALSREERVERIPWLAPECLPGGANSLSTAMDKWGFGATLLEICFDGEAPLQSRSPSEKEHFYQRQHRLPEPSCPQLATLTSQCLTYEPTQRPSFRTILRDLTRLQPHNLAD
smiles,measurement,setting,value
"CCOc1cnc(NC(C)=O)cc1Nc1ccnc(C(C)(C)F)n1 [Example 31, N-(5-ethoxy-4-((2-(2-fluoropropan-2-yl)pyrimidin-4-yl)amino)pyridin-2-yl)acetamide]",IC50,[1],≤ 0.01 µM
same,IC50,[2],0.01 to 0.1 µM
"CCOc1cnc(NC(C)=O)cc1Nc1nc(C(C)(F)F)ncc1F [Example 34, N-(4-((2-(1,1-difluoroethyl)-5-fluoropyrimidin-4-yl)amino)-5-ethoxypyridin-2-yl)acetamide]",IC50,[1],0.01 to 0.1 µM
same,IC50,[2],≥ 1 µM
"CCOc1cnc(NC(C)=O)cc1Nc1nc(C(C)(F)F)nc(C)c1F [Example 35, N-(4-((2-(1,1-difluoroethyl)-5-fluoro-6-methylpyrimidin-4-yl)amino)-5-ethoxypyridin-2-yl)acetamide]",IC50,[1],≤ 0.01 µM
same,IC50,[2],0.1 to 1 µM
"CC(=O)Nc1cc(Nc2ccnc(C(C)(F)F)n2)c(OC2CC2)cn1 [Example 38, N-(5-cyclopropoxy-4-((2-(1,1-difluoroethyl)pyrimidin-4-yl)amino)pyridin-2-yl)acetamide]",IC50,[1],≤ 0.01 µM
same,IC50,[2],0.1 to 1 µM
"COC1CC(COc2cnc(NC(C)=O)cc2Nc2cc(C)nc(C(C)(F)F)n2)C1 (stereo not shown) [Example 40, N-(4-((2-(1,1-difluoroethyl)-6-methylpyrimidin-4-yl)amino)-5-((3-methoxycyclobutyl)methoxy)pyridin-2-yl)acetamide]",IC50,[1],≤ 0.01 µM
same,IC50,[2],0.01 to 0.1 µM
"CC(=O)Nc1cc(Nc2cc(C)nc(C(C)(F)F)n2)c(C)cn1 [Example 41, N-(4-((2-(1,1-difluoroethyl)-6-methylpyrimidin-4-yl)amino)-5-methylpyridin-2-yl)acetamide]",IC50,[1],0.01 to 0.1 µM
same,IC50,[2],0.1 to 1 µM
"CCc1cnc(NC(C)=O)cc1Nc1cc(C)nc(C(C)(F)F)n1 [Example 42, N-(4-((2-(1,1-difluoroethyl)-6-methylpyrimidin-4-yl)amino)-5-ethylpyridin-2-yl)acetamide]",IC50,[1],0.01 to 0.1 µM
same,IC50,[2],≥ 1 µM
"CCCc1cnc(NC(C)=O)cc1Nc1cc(C)nc(C(C)(F)F)n1 [Example 43, N-(4-((2-(1,1-difluoroethyl)-6-methylpyrimidin-4-yl)amino)-5-propylpyridin-2-yl)acetamide]",IC50,[1],0.01 to 0.1 µM
same,IC50,[2],≥ 1 µM
"CC(=O)Nc1cc(Nc2cc(C)nc(C(C)(F)F)n2)c(OC2CC2)cn1 [Example 45, N-(5-cyclopropoxy-4-((2-(1,1-difluoroethyl)-6-methylpyrimidin-4-yl)amino)pyridin-2-yl)acetamide]",IC50,[1],≤ 0.01 µM
same,IC50,[2],0.01 to 0.1 µM
"COCc1cnc(NC(C)=O)cc1Nc1cc(C)nc(C(C)(F)F)n1 [Example 47, N-(4-((2-(1,1-difluoroethyl)-6-methylpyrimidin-4-yl)amino)-5-(methoxymethyl)pyridin-2-yl)acetamide]",IC50,[1],0.01 to 0.1 µM
same,IC50,[2],≥ 1 µM
"COCc1cnc(NC(C)=O)cc1Nc1ccc(-c2ccn(C)n2)c(OC)n1 [Example 48, N-(4-((6-methoxy-5-(1-methyl-1H-pyrazol-3-yl)pyridin-2-yl)amino)-5-(methoxymethyl)pyridin-2-yl)acetamide]",IC50,[1],0.1 to 1 µM
same,IC50,[2],≥ 1 µM
"CCOc1cnc(NC(C)=O)cc1Nc1cc(C(C)C)nc(C(C)(F)F)n1 [Example 51, N-(4-((2-(1,1-difluoroethyl)-6-isopropylpyrimidin-4-yl)amino)-5-ethoxypyridin-2-yl)acetamide]",IC50,[1],≤ 0.01 µM
same,IC50,[2],0.01 to 0.1 µM
"CCOc1cnc(NC(C)=O)cc1Nc1cc(OC2CC(C)(O)C2)nc(C(C)(F)F)n1 (stereo not shown) [Example 53, N-(4-((2-(1,1-difluoroethyl)-6-(3-hydroxy-3-methylcyclobutoxy)pyrimidin-4-yl)amino)-5-ethoxypyridin-2-yl)acetamide]",IC50,[1],≤ 0.01 µM
same,IC50,[2],0.01 to 0.1 µM
"C=Cc1cc(Nc2cc(NC(C)=O)ncc2OCCOC)nc(C(C)(F)F)n1 [Example 55, N-(4-((2-(1,1-difluoroethyl)-6-vinylpyrimidin-4-yl)amino)-5-(2-methoxyethoxy)pyridin-2-yl)acetamide]",IC50,[1],≤ 0.01 µM
same,IC50,[2],≤ 0.01 µM
